Patent publication US11040976B2, “Substrate selective inhibitors of insulin-degrading enzyme (IDE) and uses thereof” (President and Fellows of Harvard College, priority 2015, dated 2021)

Columns and labels:
[1] = target: T1, recombinant human IDE42-1019 (Homo sapiens, UniProt P14735); test: Protease assay with fluorogenic peptide substrate Mca-[…](Dnp)-OH; assay type: biochemical; conditions: fluorogenic peptide Mca-RPPGFSAFK(Dnp)-OH; for IC50: apparent IC50 for compounds with submaximal inhibition, read-out: IC50 (μM) Proteolysis; for Emax: plateau at high inhibitor concentration, read-out: Imax (%) Proteolysis (inhibition maximum)
T1 construct: recombinant human IDE42-1019 (R&D Systems); purchased R&D Systems
T1 sequence (P14735 42-1019): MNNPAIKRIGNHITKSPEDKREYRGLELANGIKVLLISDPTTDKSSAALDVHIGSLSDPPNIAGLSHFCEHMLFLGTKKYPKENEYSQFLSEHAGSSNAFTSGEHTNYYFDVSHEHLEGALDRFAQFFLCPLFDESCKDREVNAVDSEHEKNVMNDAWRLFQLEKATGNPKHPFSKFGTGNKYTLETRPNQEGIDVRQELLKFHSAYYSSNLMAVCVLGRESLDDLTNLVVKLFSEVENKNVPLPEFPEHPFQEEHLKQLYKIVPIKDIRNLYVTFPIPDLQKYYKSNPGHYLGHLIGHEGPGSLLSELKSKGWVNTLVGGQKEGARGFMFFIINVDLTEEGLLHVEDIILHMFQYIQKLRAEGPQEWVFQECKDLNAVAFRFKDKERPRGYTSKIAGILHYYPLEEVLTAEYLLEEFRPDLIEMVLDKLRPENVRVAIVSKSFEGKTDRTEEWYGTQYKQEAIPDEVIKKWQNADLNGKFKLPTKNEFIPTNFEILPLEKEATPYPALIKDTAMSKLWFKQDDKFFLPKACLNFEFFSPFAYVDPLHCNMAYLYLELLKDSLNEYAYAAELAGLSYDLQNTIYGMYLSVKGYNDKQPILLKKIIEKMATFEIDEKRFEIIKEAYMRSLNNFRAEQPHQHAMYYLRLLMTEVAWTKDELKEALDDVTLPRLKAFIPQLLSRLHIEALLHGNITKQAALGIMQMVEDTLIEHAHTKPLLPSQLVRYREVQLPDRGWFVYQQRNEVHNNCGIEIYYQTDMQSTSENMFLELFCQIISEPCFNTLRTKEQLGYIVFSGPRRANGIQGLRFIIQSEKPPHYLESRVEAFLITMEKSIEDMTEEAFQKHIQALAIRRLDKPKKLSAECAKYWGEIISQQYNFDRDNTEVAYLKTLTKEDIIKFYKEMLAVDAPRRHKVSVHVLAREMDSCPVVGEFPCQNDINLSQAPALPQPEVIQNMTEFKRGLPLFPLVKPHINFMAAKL

[2] = target: T2, Human N-His6-IDE42-1019 (E. coli expressed) (Homo sapiens, UniProt P14735); test: Fluorescence anisotropy high-throughput screening assay (displacement of probe FL-6b); assay type: binding
T2 construct: Human N-His6-IDE42-1019 (E. coli expressed); made in house; host or cells: E. coli (Rosetta 2 (DE3) pLysS, plasmid pTrcHis-A)
T2 sequence (P14735 42-1019): T1 sequence (P14735 42-1019)
Procedure: The fluorescence anisotropy screening method and probe FL-6b are described in PCT application PCT/US2014/064322, incorporated herein by reference.
Human N-His6-IDE42-1019 (E. coli expressed) was mixed with fluorescein-labeled macrocycle FL-6b:
[drawing 802] in 50 mM Tris buffer pH 8.0, with 1 M NaCl, at 25° C. Optimum signal was obtained using a mixture of […] probe FL-6b and 0.5 μM IDE. The “diversity-oriented (DOS) synthesis informer set” compound plates were pinned onto 384-well plates containing the enzyme-probe mixture (50 μL/well). The azetidine screen was pre-printed on 384-well plates and the enzyme-probe mixture was added (50 μL/well). The final compound concentration was 20 μM. IDE inhibitor 6bK was used as a positive control at a final concentration of 1 μM. After 30 minutes of equilibration, the increase in fluorescence anisotropy was recorded using an EnVision spectrophotometer (excitation 492 nm, emission 523 nm). The fluorescence anisotropy was independently measured twice for each screened compound. The Z-scores for each pair of measurements are plotted in FIG. 1A (DOS informer set) and FIG. 1B (azetidines), and average Z-scores are listed for exemplary compounds in Table E1.
Z-scores were calculated based on the raw anisotropy measured for each well according to Eq. 1, wherein x is the raw anisotropy value of the well, μ is the mean of the anisotropy of the negative control wells (DMSO) for the plate, and σ is the standard deviation in anisotropy of the negative control wells (DMSO) for the plate.

[3] = final compound concentration 20 μM (6bK control 1 μM), values without asterisk
[4] = values marked *: from the screen using the diversity-oriented synthesis (DOS) informer set of plates, 20 μM

Row | Compound | IC50 [1] | Emax [1] | Average Z-score (Fluorescence anisotropy) [2, 3] | Average Z-score (Fluorescence anisotropy) [2, 4]
1 | Cc1ccccc1-c1ccc(C2C3CN(C(=O)c4cnccn4)CC2N3)cc1 (stereo not drawn) [C1] | 2 µM | 70% | −20.0 | 
2 | Cc1ccccc1-c1ccc(C2C3CN(S(=O)(=O)c4cn(C)cn4)CC2N3)cc1 (stereo not drawn) [C2] | 7 µM | 50% | −16.62 | 
3 | Cc1ccccc1-c1ccc(C2C3CN(Cc4ccncc4)CC2N3)cc1 (stereo not drawn) [C3] | 5 µM | 70% | −9.02 | 
4 | COc1ccccc1-c1ccc(C2C3CN(C(=O)c4cccnc4)CC2N3)cc1 (stereo not drawn) [C4] | 7.5 µM | 70% | −13.76 | 
5 | Cc1ccccc1-c1ccc(C2C3CN(Cc4cccnc4)CC2N3)cc1 (stereo not drawn) [C5] |  |  | −13.95 | 
6 | Cc1ccccc1-c1ccc(C2C3CN(C(=O)C4CCCCC4)CC2N3)cc1 (stereo not drawn) [C6] | 2 µM | 60% | −13.8 | 
7 | Cc1ccccc1-c1ccc(C2C3CN(C(=O)C4CCOCC4)CC2N3)cc1 (stereo not drawn) [C7] | 2.5 µM | 80% | −7.7 | 
8 | Cc1ccccc1-c1ccc(C2C3CN(Cc4cncnc4)CC2N3)cc1 (stereo not drawn) [C8] | 7.5 µM | 70% | −2.58 | 
9 | Cc1ccccc1-c1ccc(C2C3CN(Cc4cocn4)CC2N3)cc1 (stereo not drawn) [C9] | 25 µM | > 60% | −3.01 | 
10 | COc1ccccc1-c1ccc([C@@H]2[C@@H](C#N)N(C(=O)C3CC3)[C@@H]2CO)cc1 [D1] |  |  | −16.97 | 
11 | COc1ccccc1-c1ccc([C@H]2[C@@H](CO)N(C(=O)NC(C)C)[C@H]2C#N)cc1 [D2] |  | 100% | −16.33 | 
12 | COc1ccccc1-c1ccc([C@H]2[C@H](C#N)N[C@@H]2CO)cc1 [D7] |  |  | −10.49 | 
13 | COc1ccccc1-c1ccc([C@@H]2[C@@H](C#N)N(C(=O)NC3CCCCC3)[C@@H]2CO)cc1 [D8] | 1 µM | 40% | −33.77 | 
14 | COc1ccccc1-c1ccc([C@@H]2[C@@H](C#N)N(C(=O)c3cccnc3)[C@@H]2CO)cc1 [D9] | 7.5 µM | 60% | −12.03 | 
15 | Cc1ccccc1-c1ccc([C@H]2[C@H](CO)N3C(=O)CN(S(C)(=O)=O)C[C@@H]23)cc1 [compound 061] | > 100 µM |  | −1.36 | 
16 | Cc1cccc(-c2ccc([C@@H]3[C@@H](CO)N4CCCCN(CCC(F)(F)F)C[C@@H]34)cc2)c1 [compound 073] | > 50 µM |  | −0.68 | 
17 | Cc1ccccc1-c1ccc([C@H]2[C@@H](CO)N3CCCCN(S(C)(=O)=O)C[C@@H]23)cc1 [compound 077] | > 100 µM |  | −2.31 | 
18 | Cc1ccccc1-c1ccc([C@@H]2[C@@H](CO)N3C(=O)CN(C(=O)Cc4ccccn4)C[C@@H]23)cc1 [compound 081] | 2.5 µM | 50% | −19.85 | 
19 | COc1cccc(C#Cc2ccc([C@@H]3[C@H](CO)N4C(=O)CN(C(=O)Cc5cccnc5)C[C@@H]34)cc2)c1 [compound 089] |  |  | −4.11 | 
20 | Cc1cccc(-c2ccc([C@H]3[C@@H](CO)N4CCCCN(C(=O)c5cccnc5)C[C@H]34)cc2)c1 [compound 091] | 7 µM | 70% | −16.96 | 

Row | Compound | IC50 [1] | Emax [1] | Average Z-score (Fluorescence anisotropy) [2, 3] | Average Z-score (Fluorescence anisotropy) [2, 4]
21 | Cc1ccccc1-c1ccc([C@@H]2[C@H]3CN(C(=O)c4ccncc4)CC(=O)N3[C@H]2CO)cc1 [compound 102] |  | 80% |  | −13.56*
22 | Cc1ccccc1-c1ccc([C@H]2[C@@H](CO)N3CCCCN(C(=O)c4cccnc4)C[C@H]23)cc1 [compound 106] |  | 80% | −16.48 | 
23 | Cc1ccccc1-c1ccc([C@H]2[C@H](CO)N3C(=O)CN(C(=O)c4ccc(F)cc4)C[C@@H]23)cc1 [compound 124] |  | 70% | −16.49 | 
24 | Cc1ccccc1-c1ccc([C@@H]2[C@H]3CN(C(=O)Cc4ccccn4)CC(=O)N3[C@H]2CO)cc1 [compound 140] | 2.5 µM | 50% | −17.72 | 
25 | COc1ccccc1C#Cc1ccc([C@H]2[C@H]3CN(C(=O)C4CCC4)CCCCN3[C@H]2CO)cc1 [compound 141] | > 100 µM |  |  | −17.53*
26 | O=C(C1CCOCC1)N1CC(=O)N2[C@H](CO)[C@H](c3ccc(C#Cc4cccc(F)c4)cc3)[C@H]2C1 [compound 142] | 6 µM | ~100% | −19.27 | 
27 | COc1ccccc1NC(=O)N1CCCCN2[C@H](CO)[C@@H](c3ccc(-c4cccc(C)c4)cc3)[C@@H]2C1 [compound 154] | > 10 µM | 20% | −2.84 | 
28 | COc1ccccc1C#Cc1ccc([C@H]2[C@H](CO)N3CCCCN(C(=O)C4CCC4)C[C@@H]23)cc1 [compound 180] |  | 80% |  | −12.26*
29 | O=C(CC1CC1)N1CC(=O)N2[C@H](C1)[C@H](c1ccc(C#Cc3ccccc3)cc1)[C@@H]2CO [compound 187] | > 20 µM |  | −15.91 | 
30 | Cc1ccccc1-c1ccc([C@@H]2[C@@H](CO)N3CCCCN(S(=O)(=O)c4ccc(F)cc4)C[C@@H]23)cc1 [compound 217] |  | 40% | −17.51 | 
31 | Cc1ccccc1-c1ccc([C@H]2[C@@H](CO)N3CCCCN(C(=O)Nc4ccc(F)cc4)C[C@@H]23)cc1 [compound 226] |  | 30% | −1.67 | 
32 | Cc1ccccc1-c1ccc([C@H]2[C@@H](CO)N3CCCCN(S(=O)(=O)Cc4ccccc4)C[C@@H]23)cc1 [compound 236] | > 200 µM |  | −1.64 | 
33 | COc1cccc(-c2ccc([C@@H]3[C@@H](CO)N4CCCCN(CC5CCOCC5)C[C@@H]34)cc2)c1 [compound 644] | > 100 µM |  |  | 
34 | OC[C@H]1[C@@H](c2ccc(C#Cc3ccccc3F)cc2)[C@@H]2CN(Cc3cncnc3)CCCCN12 [compound 683] | 7 µM | 80% |  | 
35 | Cc1cccc(-c2ccc([C@@H]3[C@@H](CO)N4CCCCN(S(=O)(=O)c5ccccc5F)C[C@@H]34)cc2)c1 [compound 688] |  |  |  | −27.23*
36 | CCCNC(=O)N1CC(=O)N2[C@H](CO)[C@H](c3ccc(-c4cccc(C)c4)cc3)[C@@H]2C1 [compound 782] |  |  | −16.08 | 
37 | O=C(NC1CCCC1)N1CCCCN2[C@@H](CO)[C@H](c3ccc(/C=C/c4ccccc4)cc3)[C@@H]2C1 [compound 900] | > 7.5 µM |  |  | 
38 | COc1ccccc1C#Cc1ccc([C@@H]2[C@H](CO)N3CCCCN(C(=O)C4CCC4)C[C@@H]23)cc1 [compound 930] |  |  |  | −10.53*
39 | Cc1ccccc1-c1ccc([C@@H]2[C@H](CO)N3C(=O)CN(C(=O)NC4CCCC4)C[C@@H]23)cc1 [compound 1576] | 2.5 µM | 60% |  | 
